Here are results for 28 compounds from PubChem BioAssay (NCI).

“And” between values parts separate entries of the source, which are not always exact repeats. Equal entries are not always repeated.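 Five compound concentrations were applied to cells in 96-well plates for 48 hours; endpoints were derived by simple linear interpolation of the resulting dose-response curve. GI50: concentration for 50% inhibition of growth. At the TGI there is no net growth.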 Some results are limits rather than exact numbers.

The first assay deals with SF-295 CNS. The assay can be described thus: inhibition of tumour cell growth, NCI panel, 48 h.
Compound `O=C(c1ccccc1)c1c(CC(O)c2cccnc2)n(C(=O)c2ccccc2)c2ccccc12` (stereo unspecified) gave a TGI of 35.6 µM.

Consider `C=C(C)C1CC2C(C)=C(OC(C)=O)C1n1c(=O)c3cc4ccccc4cc3c(=O)n12` (stereo unspecified), for which the TGI is greater than 100 µM.

In the case of `COc1cc(Nc2ccnc(N3CCN(c4ccnc5cc(Cl)ccc45)CC3)n2)cc(OC)c1`, the GI50 is 0.289 µM and the TGI is 2.13 µM.

Compound `O=C(CCc1nc(=S)[nH][nH]1)NC12CC3CC(CC(C3)C1)C2` yielded a TGI greater than 100 µM.

On to `COc1ccc(C(C2=C(C)C(=O)c3ccccc3C2=O)c2ccc(C(C)C)cc(=O)c2O)cc1` (stereo unspecified), for which the TGI was found to be 23 µM.

Regarding `CC(C)N(C(=O)C12C3C4C1C1C2C3C41C(O)C(C)(C)C)C(C)C` (stereo unspecified), the TGI is greater than 50 µM.

A further assay concerns SK-OV-3 ovarian. Put plainly: inhibition of tumour cell growth, NCI panel, 48 h.
Regarding `O=C1c2ccccc2N2OC3(N4CCCC4)CCCC3C12c1ccccc1` (stereo unspecified), the TGI is greater than 100 µM.

As to `COc1ccc(C2C(Cl)C(=O)N2n2cnc3ccccc3c2=O)cc1OC` (stereo unspecified), the TGI is greater than 100 µM.

`Nc1nc2c(ncn2Cc2ccccc2CCO)c(=O)[nH]1` displayed a TGI greater than 100 µM.

In turn, `CC[N+]1(C)CCC(O)(c2ccc(C)cc2)C(C(=O)c2ccc(C)cc2)C1` (stereo unspecified) returned a TGI greater than 100 µM.

In turn, `CCC1(Br)C(=O)NC(=O)N(C2CC(O)C(CO)O2)C1N=[N+]=[N-]` (stereo unspecified) displayed a TGI greater than 100 µM.

`O=[N+]([O-])c1ccc(N=Nc2c(O)[nH]c3ccc([N+](=O)[O-])cc23)cc1` gave a TGI of 58.5 µM.

`CC12CC3(C)CC(C)(C1)CC(N=[N+]=[N-])(C2)C3` yielded a TGI greater than 100 µM.

In the case of `Clc1ccc([O][In]([O]c2ccc(Cl)cn2)[O]c2ccc(Cl)cn2)nc1`, the GI50 was 64.4 µM and the TGI is greater than 100 µM.

`Fc1cccc(Cl)c1C1SCc2nc3ccccc3n21` (stereo unspecified) gave a TGI of 62.2 µM.

Regarding `COc1cc2nncc(Sc3cnnc4ccccc34)c2cc1OC`, the TGI was found to be 76.6 µM.

Turning to `COC(=O)C1=CCON(c2ccccc2)C1c1ccccc1` (stereo unspecified), the TGI was greater than 100 µM.

Turning to `Nc1cc(N)c2nc(-c3ccccc3)c(Oc3ccc(F)cc3)nc2c1`, the GI50 was 20.7 µM and the TGI amounted to 41.4 µM.

In turn, `CC(=O)N(CCN)CCN` displayed a TGI greater than 100 µM.

The compound `Cc1cc(O)c2c(c1)C(O)(c1ccc3c(c1O)C(=O)c1c(O)cc(C)cc1C3(O)C1OC(CO)C(O)C(O)C1O)c1cccc(O)c1C2=O` (stereo unspecified) had a TGI of 31.4 µM.

`COC(=O)c1nc(NN)[nH]c(=O)c1CCCCCc1c(C(=O)OC)[nH]c(NN)cc1=O`: the TGI is greater than 100 µM.

The compound `CC1(C)C(=O)C(O)=CC2C1=CCC1C2(C)C(=O)CC2(C)C(C(C)(O)C(=O)CC(O)C(C)(C)O)C(O)CC12C` (stereo unspecified) came in with a TGI of 28.9 µM.

For `CCc1ccccc1NC(=O)C(=O)C(C(=O)c1ccc(OC)cc1)c1ccc(OC)cc1` (stereo unspecified), the TGI is greater than 100 µM.

Regarding `C/C(=N/N(C=O)C[n+]1ccccc1)C(CN(CC(C)C)CC(C)C)C(=O)Nc1ccc(C)cc1C` (stereo unspecified), the TGI was greater than 100 µM.

On to `COc1cc(C2c3cc4c(cc3[C@@H](Nc3ccc(N(C)C)cc3)[C@H]3COC(=O)C23)OCO4)cc(OC)c1O` (stereo partly specified), for which the GI50 was 0.279 µM; the TGI is 2.23 µM and 5.72 µM.

Regarding `O=c1nc(-c2ccccc2)c2c3c(cccn13)CCC2`, the TGI is greater than 100 µM.

Turning to `COc1ccc([C@H]2CC(=O)N3CCCC3N2)cc1` (stereo partly specified), the TGI was greater than 100 µM.

Regarding `C=C(C)C1CC2C(C)=C(OC(C)=O)C1n1c(=O)c3cc4ccccc4cc3c(=O)n12` (stereo unspecified), the TGI is greater than 100 µM.

Take `COc1cc(Nc2ccnc(N3CCN(c4ccnc5cc(Cl)ccc45)CC3)n2)cc(OC)c1`: the GI50 was 3.17 µM and the TGI is greater than 36.3 µM.

As for `O=C(CCc1nc(=S)[nH][nH]1)NC12CC3CC(CC(C3)C1)C2`, the TGI is greater than 100 µM.

Regarding `COc1ccc(C(C2=C(C)C(=O)c3ccccc3C2=O)c2ccc(C(C)C)cc(=O)c2O)cc1` (stereo unspecified), the TGI was found to be 14.6 µM.

`CC(C)N(C(=O)C12C3C4C1C1C2C3C41C(O)C(C)(C)C)C(C)C` (stereo unspecified): the TGI is greater than 50 µM.

The next assay relates to TK-10 renal. The assay can be described thus: inhibition of tumour cell growth, NCI panel, 48 h.
Consider `COc1ccc(C2C(Cl)C(=O)N2n2cnc3ccccc3c2=O)cc1OC` (stereo unspecified), for which the TGI is greater than 100 µM.

For the compound `Nc1nc2c(ncn2Cc2ccccc2CCO)c(=O)[nH]1`, the TGI was greater than 100 µM.

Consider `CC[N+]1(C)CCC(O)(c2ccc(C)cc2)C(C(=O)c2ccc(C)cc2)C1` (stereo unspecified), for which the TGI was 47.5 µM.

Compound `CCC1(Br)C(=O)NC(=O)N(C2CC(O)C(CO)O2)C1N=[N+]=[N-]` (stereo unspecified) yielded a TGI greater than 100 µM.

As to `O=[N+]([O-])c1ccc(N=Nc2c(O)[nH]c3ccc([N+](=O)[O-])cc23)cc1`, the TGI was 54.7 µM.

As to `CC12CC3(C)CC(C)(C1)CC(N=[N+]=[N-])(C2)C3`, the TGI is greater than 100 µM.

In turn, `N=C(N)SCc1cn2ccccc2n1` had a TGI greater than 100 µM.

`Clc1ccc([O][In]([O]c2ccc(Cl)cn2)[O]c2ccc(Cl)cn2)nc1`: the GI50 is greater than 100 µM and the TGI is greater than 100 µM.

In turn, `Fc1cccc(Cl)c1C1SCc2nc3ccccc3n21` (stereo unspecified) gave a TGI greater than 100 µM.

Take `COc1cc2nncc(Sc3cnnc4ccccc34)c2cc1OC`: the TGI was found to be 81.3 µM.

`COC(=O)C1=CCON(c2ccccc2)C1c1ccccc1` (stereo unspecified): the TGI was greater than 100 µM.

Regarding `Nc1cc(N)c2nc(-c3ccccc3)c(Oc3ccc(F)cc3)nc2c1`, the GI50 was 20.4 µM and the TGI turned out to be 46.3 µM.

Regarding `CC(=O)N(CCN)CCN`, the TGI is greater than 10 µM.

In turn, `Cc1cc(O)c2c(c1)C(O)(c1ccc3c(c1O)C(=O)c1c(O)cc(C)cc1C3(O)C1OC(CO)C(O)C(O)C1O)c1cccc(O)c1C2=O` (stereo unspecified) yielded a TGI of 27.2 µM.

In the case of `COC(=O)c1nc(NN)[nH]c(=O)c1CCCCCc1c(C(=O)OC)[nH]c(NN)cc1=O`, the TGI is greater than 100 µM.

On to `CC1(C)C(=O)C(O)=CC2C1=CCC1C2(C)C(=O)CC2(C)C(C(C)(O)C(=O)CC(O)C(C)(C)O)C(O)CC12C` (stereo unspecified), for which the TGI worked out at 5.94 µM.

On to `CCc1ccccc1NC(=O)C(=O)C(C(=O)c1ccc(OC)cc1)c1ccc(OC)cc1` (stereo unspecified), for which the TGI was greater than 100 µM.

In turn, `C/C(=N/N(C=O)C[n+]1ccccc1)C(CN(CC(C)C)CC(C)C)C(=O)Nc1ccc(C)cc1C` (stereo unspecified) returned a TGI greater than 100 µM.

With `COc1cc(C2c3cc4c(cc3[C@@H](Nc3ccc(N(C)C)cc3)[C@H]3COC(=O)C23)OCO4)cc(OC)c1O` (stereo partly specified), the GI50 was 8.85 µM; the TGI was 11.6 µM and 27.2 µM.

For `O=c1nc(-c2ccccc2)c2c3c(cccn13)CCC2`, the TGI is greater than 100 µM.

In turn, `COc1ccc([C@H]2CC(=O)N3CCCC3N2)cc1` (stereo partly specified) came in with a TGI greater than 100 µM.

Compound `O=C(c1ccccc1)c1c(CC(O)c2cccnc2)n(C(=O)c2ccccc2)c2ccccc12` (stereo unspecified) yielded a TGI of 86.3 µM.

`C=C(C)C1CC2C(C)=C(OC(C)=O)C1n1c(=O)c3cc4ccccc4cc3c(=O)n12` (stereo unspecified) showed a TGI greater than 100 µM.

On to `COc1cc(Nc2ccnc(N3CCN(c4ccnc5cc(Cl)ccc45)CC3)n2)cc(OC)c1`, for which the GI50 was 2.22 µM and the TGI was greater than 100 µM.

Take `O=C(CCc1nc(=S)[nH][nH]1)NC12CC3CC(CC(C3)C1)C2`: the TGI was greater than 100 µM.
